From patent US20170114049A1, “2,5-DISUBSTITUTED CYCLOPENTANE CARBOXYLIC ACIDS FOR THE TREATMENT OF RESPIRATORY TRACT DISEASES” (BAYER PHARMA AKTIENGESELLSCHAFT, priority 2014, published 2017)
Like-named read-outs stand apart in the source and are kept apart here.

Columns and labels:
Type in all cases: biochemical
mouse MMP-7 = biological target: T1, mouse MMP-7 (Mus musculus, UniProt Q10738); experiment: In vitro mouse MMP-7 inhibition test
T1 construct: purchased R&D Systems 2967-MP
T1 sequence (Q10738 95-264): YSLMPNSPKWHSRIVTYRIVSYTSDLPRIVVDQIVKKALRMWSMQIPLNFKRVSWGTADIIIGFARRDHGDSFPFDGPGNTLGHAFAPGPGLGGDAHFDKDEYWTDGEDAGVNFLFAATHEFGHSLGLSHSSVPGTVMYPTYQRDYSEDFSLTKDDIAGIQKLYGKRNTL
Text: (§1) The MMP-mediated amidolytic cleavage of a suitable peptide substrate leads to an increase in fluorescent light here too. The signal intensity of the fluorescent light is directly proportional to the enzyme activity. The active concentration of a test compound at which half the enzyme is inhibited (50% signal intensity of the fluorescent light) is reported as the 1050 value.
Recombinant mouse MMP-7 (from R&D Systems, 2967-MP) is chemically activated in accordance with the manufacturer's instructions using APMA. 1 μl of the test compound to be analysed (as a solution in DMSO, suitable concentrations, for example, 1 nM to 30 μM) is pipetted into 24 μl of activated enzyme (final concentration, for example, 0.5 nM) in reaction buffer (50 mM Tris/HCl pH 7.5, 10 mM CaCl2, 150 mM NaCl, 0.05% Brij®-35) in a white 384-hole microtiter plate (MTP). The enzymatic reaction is started by adding the intramolecularly quenched Mca-Lys-Pro-Leu-Gly-Leu-Dpa(Dnp)-Ala-Arg-NH2 substrate (final concentration, for example, 5 μM; R&D Systems, ES-010), so as to result in a total test volume of 50 μl. The course of the MMP-7 reaction is measured by measuring the fluorescence intensity (excitation 320 nm, emission 410 nm) over a suitable period of time (for example over 120 min at a temperature of 32° C.).

mouse MMP-2 = biological target: T2, mouse MMP-2 (Mus musculus, UniProt P33434); experiment: In vitro mouse MMP-2 inhibition test
T2 construct: purchased R&D Systems 924-MP
T2 sequence (P33434 110-662): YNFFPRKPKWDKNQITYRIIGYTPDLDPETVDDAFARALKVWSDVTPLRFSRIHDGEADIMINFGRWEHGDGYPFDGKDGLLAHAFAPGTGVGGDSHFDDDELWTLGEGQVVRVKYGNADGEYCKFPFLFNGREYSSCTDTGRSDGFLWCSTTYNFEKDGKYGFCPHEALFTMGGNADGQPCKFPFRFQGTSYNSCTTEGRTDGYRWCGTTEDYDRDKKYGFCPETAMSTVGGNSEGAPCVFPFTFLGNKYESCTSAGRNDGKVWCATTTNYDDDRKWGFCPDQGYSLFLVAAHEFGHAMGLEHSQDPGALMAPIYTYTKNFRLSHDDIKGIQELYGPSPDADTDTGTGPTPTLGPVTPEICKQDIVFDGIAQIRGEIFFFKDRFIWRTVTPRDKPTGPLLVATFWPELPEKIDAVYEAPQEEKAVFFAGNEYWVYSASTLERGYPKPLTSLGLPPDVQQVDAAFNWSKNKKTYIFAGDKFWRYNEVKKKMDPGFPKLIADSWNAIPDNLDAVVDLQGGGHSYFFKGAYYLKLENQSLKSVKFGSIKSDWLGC
Text: as §1
Recombinant mouse MMP-2 (from R&D Systems, 924-MP) is chemically activated in accordance with the manufacturer's instructions using APMA. 1 μl of the test compound to be analysed (as a solution in DMSO, suitable concentrations, for example, 1 nM to 30 μM) is pipetted into 24 μl of activated enzyme (final concentration, for example, 0.1 nM) in reaction buffer (50 mM Tris/HCl pH 7.5, 10 mM CaCl2, 150 mM NaCl, 0.05% Brij®-35) in a white 384-hole microtiter plate (MTP). The enzymatic reaction is started by adding the intramolecularly quenched Mca-Pro-Leu-Gly-Leu-Dpa(Dnp)-Ala-Arg-NH2 substrate (final concentration, for example, 10 μM; R&D Systems, ES-001), so as to result in a total test volume of 50 μl. The course of the MMP-2 reaction is measured by measuring the fluorescence intensity (excitation 320 nm, emission 410 nm) over a suitable period of time (for example over 120 min at a temperature of 32° C.).

[1] = biological target: T3, human macrophage elastase (HME/hMMP-12) (Homo sapiens, UniProt P39900); experiment: In vitro HME inhibition test (standard or high-sensitivity)
T3 construct: 0.5 nM HME; purchased R&D Systems 917-MP
T3 sequence (P39900 106-470): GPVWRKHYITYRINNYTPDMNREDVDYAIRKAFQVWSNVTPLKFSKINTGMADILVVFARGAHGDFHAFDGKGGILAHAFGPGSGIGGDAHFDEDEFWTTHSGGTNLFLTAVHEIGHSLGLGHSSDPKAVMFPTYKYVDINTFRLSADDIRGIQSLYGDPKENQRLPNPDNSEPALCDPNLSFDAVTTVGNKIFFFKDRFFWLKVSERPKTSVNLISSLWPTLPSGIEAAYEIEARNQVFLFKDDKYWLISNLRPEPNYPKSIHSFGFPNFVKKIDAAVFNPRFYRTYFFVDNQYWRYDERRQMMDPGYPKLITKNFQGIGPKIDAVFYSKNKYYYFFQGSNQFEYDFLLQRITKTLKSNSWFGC
Experimental: as §1, with “potency of the compounds according to the invention with respect to HME (MMP-12) is determined in an in vitro inhibition test. The HME-mediated” for “MMP-mediated”, “therein.” for “here too.”, “IC50” for “1050”
In a 384 hole microtiter plate, in a total test volume of 41 μl, the test buffer (0.1 M HEPES pH 7.4, 0.15 M NaCl, 0.03 M CaCl2, 0.004 mM ZnCl2, 0.02 M EDTA, 0.005% Brij®), the enzyme (0.5 nM HME; from R&D Systems, 917-MP, autocatalytic activation according to the manufacturer's instructions) and the intramolecularly quenched substrate [5 μM Mca-Pro-Leu-Gly-Leu-Glu-Glu-Ala-Dap(Dnp)-NH2; Bachem, M-2670] are incubated in the absence and presence of the test substance (as a solution in DMSO) at 37° C. for two hours. The fluorescence intensity of the test mixtures is measured (excitation […], emission 393 nm). The IC50 values are ascertained by plotting the fluorescent light intensity against the active ingredient concentration.
In this case, an enzyme concentration ten times lower is used (final concentration, for example, 0.05 nM) in order to achieve an elevated test sensitivity. The incubation period chosen for the test is correspondingly longer (for example 16 hours).

mouse MMP-3 = biological target: T4, mouse MMP-3 (Mus musculus, UniProt P28862); experiment: In vitro mouse MMP-3 inhibition test
T4 construct: purchased R&D Systems 548-MP
T4 sequence (P28862 100-477): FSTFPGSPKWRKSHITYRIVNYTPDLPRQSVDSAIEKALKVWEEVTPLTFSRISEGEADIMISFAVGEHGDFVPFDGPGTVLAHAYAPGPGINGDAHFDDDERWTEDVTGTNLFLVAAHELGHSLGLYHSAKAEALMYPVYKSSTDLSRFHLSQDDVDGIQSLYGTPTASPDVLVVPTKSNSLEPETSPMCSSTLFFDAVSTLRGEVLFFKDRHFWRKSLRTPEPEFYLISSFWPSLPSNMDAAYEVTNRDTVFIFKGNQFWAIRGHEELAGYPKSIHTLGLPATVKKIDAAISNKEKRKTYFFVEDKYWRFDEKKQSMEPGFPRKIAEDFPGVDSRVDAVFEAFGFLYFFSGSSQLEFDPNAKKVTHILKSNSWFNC

[2] = absence of serum albumin (BSA), read-out: HME IC50 (−BSA)
[3] = standard or high-sensitivity HME inhibition test, read-out: HME/hMMP-12 IC50

Molecule | IC50 (mouse MMP-7) | IC50 (mouse MMP-2) | IC50 [1, 2] | IC50 [1, 3] | IC50 (mouse MMP-3)
O=C(O)[C@@H]1[C@@H](Cn2nnc3ccc(C(F)(F)F)cc3c2=O)CC[C@H]1C(=O)c1ccc(OCCC2CCOCC2)cc1 (single isomer, unassigned) [Example 11, (+)-(1RS,2SR,5RS)-2-{[4-Oxo-6-(trifluoromethyl)-1,2,3-benzotriazin-3(4H)-yl]methyl}-5-{4-[2-(tetrahydro-2H-pyran-4-yl)ethoxy]benzoyl}cyclopentanecarboxylic acid] | 210 nM | 640 nM | 0.19 nM | 0.19 nM | 620 nM
O=C(O)[C@@H]1[C@@H](Cn2nnc3ccc(C(F)(F)F)cc3c2=O)CC[C@H]1C(=O)c1ccc(SCC2CCOCC2)cc1 (single isomer, unassigned) [Example 15, (+)-(1RS,2SR,5RS)-2-{[4-Oxo-6-(trifluoromethyl)-1,2,3-benzotriazin-3(4H)-yl]methyl}-5-{4-[(tetrahydro-2H-pyran-4-ylmethyl)sulphanyl]benzoyl}cyclopentanecarboxylic acid] | – | – | 0.026 nM | 0.026 nM | –
Cc1ccc2nnn(C[C@H]3CC[C@@H](C(=O)c4ccc(OCCC5CCOCC5)cc4)[C@@H]3C(=O)O)c(=O)c2c1 (single isomer, unassigned) [Example 20, (+)-(1RS,2SR,5RS)-2-[(6-Methyl-4-oxo-1,2,3-benzotriazin-3(4H)-yl)methyl]-5-{4-[2-(tetrahydro-2H-pyran-4-yl)ethoxy]benzoyl}cyclopentanecarboxylic acid] | 200 nM | 340 nM | 0.053 nM | 0.053 nM | 670 nM
O=C(O)[C@H]1[C@H](Cn2nnc3ccc(C(F)(F)F)cc3c2=O)CC[C@@H]1C(=O)c1ccc(OCCC2CCOCC2)cc1 (stereo in doubt) [Example 10, (+/−)-(1RS ,2S R,5RS)-2-{[4-Oxo-6-(trifluoromethyl)-1,2,3-benzotriazin-3(4H)-yl]methyl}-5-{4-[2-(tetrahydro-2H-pyran-4-yl)ethoxy]benzoyl}cyclopentanecarboxylic acid] | 130 nM | 300 nM | – | 0.021 nM | 120 nM
(+)-(1RS,2SR,5RS)-2-{[4-Oxo-6-(trifluoromethyl)-1,2,3-benzotriazin-3(4H)-yl]methyl}-5-[4-(tetra-hydro-2H-pyran-4-ylmethoxy)benzoyl]cyclopentanecarboxylic acid [Example 8] | – | – | 0.016 nM | 0.016 nM | –
O=C(O)[C@H]1[C@H](Cn2nnc3ccc(C(F)(F)F)cc3c2=O)CC[C@@H]1C(=O)c1ccc(OCC2CCOCC2)cc1 (racemic) [Example 7, (+/−)-(1RS,2SR,5RS)-2-{[4-Oxo-6-(trifluoromethyl)-1,2,3-benzotriazin-3(4H)-yl]methyl}-5-[4-(tetrahydro-2H-pyran-4-ylmethoxy)benzoyl]cyclopentanecarboxylic acid] | – | – | – | 0.031 nM | –
Cc1ccc2nnn(C[C@@H]3CC[C@H](C(=O)c4ccc(OCCC5CCOCC5)cc4)[C@H]3C(=O)O)c(=O)c2c1 (racemic) [Example 19, (+/−)-(1RS,2SR,5RS)-2-[(6-Methyl-4-oxo-1,2,3-benzotriazin-3(4H)-yl)methyl]-5-{4-[2-(letrahydro-2H-pyran-4-yl)ethoxy]benzoyl}cyclopentanecarboxylic acid] | 630 nM | 840 nM | 0.12 nM | 0.12 nM | 3100 nM

More lines, now with the values ahead:

IC50 (mouse MMP-7) | IC50 (mouse MMP-2) | IC50 [1, 2] | IC50 [1, 3] | IC50 (mouse MMP-3) | Molecule
130 nM | 45 nM | 0.085 nM | 0.085 nM | 270 nM | O=C(O)[C@@H]1[C@@H](Cn2nnc3ccccc3c2=O)CC[C@H]1C(=O)c1ccc(OCCC2CCOCC2)cc1 (single isomer, unassigned) [Example 5, (+)-(1RS,2SR,5RS)-2-[(4-Oxo-1,2,3-benzotriazin-3(4H)-yl)methyl]-5-{4-[2-(tetrahydro-2H-pyran-4-yl)ethoxy]benzoyl}cyclopentanecarboxylic acid]
85 nM | 170 nM | 0.04 nM | 0.04 nM | 570 nM | O=C(O)[C@H]1[C@H](Cn2nnc3ccccc3c2=O)CC[C@@H]1C(=O)c1ccc(OCC2CCOCC2)cc1 (stereo in doubt) [Example 1, (+/−)-(1RS,2SR,5RS)-2-[(4-Oxo-1,2,3-benzotriazin-3(4H)-yl)methyl]-5-[4-(tetrahydro-2H-pyran-4-ylmethoxy)benzoyl]cyclopentanecarboxylic acid]
52 nM | 58 nM | 0.071 nM | 0.071 nM | 710 nM | O=C(O)[C@@H]1[C@@H](Cn2nnc3ccccc3c2=O)CC[C@H]1C(=O)c1ccc(OCC2CCOCC2)cc1 (stereo in doubt) [Example 2, (+)-(1RS,2SR,5RS)-2-[(4-Oxo-1,2,3-benzotriazin-3(4H)-yl)methyl]-5-[4-(tetrahydro-2H-pyran-4-ylmethoxy)benzoyl]cyclopentanecarboxylic acid]
1400 nM | 490 nM | 0.37 nM | 0.37 nM | 4000 nM | O=C(O)[C@H]1[C@H](Cn2nnc3ccccc3c2=O)CC[C@@H]1C(=O)c1ccc(OCCC2CCOCC2)cc1 (stereo in doubt) [Example 4, (+/−)-(1RS,2SR,5RS)-2-[(4-Oxo-1,2,3-benzotriazin-3(4H)-yl)methyl]-5-{4-[2-(tetrahydro-2H-pyran-4-yl)ethoxy]benzoyl}cyclopentanecarboxylic acid]
